Consider ten compounds from PubChem BioAssay (NCI).

Among the test systems are ACHN renal; T-47D breast; CCRF-CEM leukemia; EKVX NSCLC; SF-295 CNS; UO-31 renal; OVCAR-5 ovarian; MCF7 breast; UACC-257 melanoma; K-562 leukemia.
Common to all, as to test: growth of human tumour cells (NCI), 48 h

Where “and” joins values, the source holds several entries; their conditions need not be identical. Identical values can stand only once.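 Cells were grown in 96-well plates and exposed to each compound for 48 hours at five concentrations; endpoints were interpolated linearly between bracketing concentrations, or set to the highest concentration if not reached. Abbreviation: GI50, concentration required for 50% inhibition of growth. Definition used: TGI = concentration required for complete inhibition of growth.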

As for `COc1c(C)c(OC)c(C(=O)CC(C)C)c(OC)c1C`, the TGI in the experiment on ACHN renal, in the experiment with T-47D breast, with CCRF-CEM leukemia, in the experiment with EKVX NSCLC, in the experiment with SF-295 CNS and with UO-31 renal was greater than 100 µM throughout. Also, the TGI with OVCAR-5 ovarian, with MCF7 breast and with UACC-257 melanoma was greater than 100 µM throughout.

For `CC[C@]12C=CCN3CC[C@@]4(c5ccc(OC)cc5N(C)[C@H]4[C@@](O)(C(=O)OC)[C@@H]1OC(=O)CCC(=O)O[C@H]1CC[C@H]4[C@@H]5CC[C@H]6CC(=O)CC[C@]6(C)[C@H]5CC[C@]14C)[C@@H]32`, the GI50 with ACHN renal is 3.01 µM; with T-47D breast it was 2.1 µM; with CCRF-CEM leukemia, 3.04 µM; with EKVX NSCLC, 1.78 µM; with SF-295 CNS it was 2.02 µM; in the experiment with OVCAR-5 ovarian, 2.69 µM. In addition, the GI50 in the experiment with MCF7 breast is 2.42 µM; in the experiment on UACC-257 melanoma, 3.91 µM. Besides, the TGI with ACHN renal is greater than 100 µM; in the experiment with T-47D breast, 29.7 µM; with CCRF-CEM leukemia it was greater than 100 µM; with EKVX NSCLC, greater than 100 µM; in the experiment with SF-295 CNS, greater than 100 µM; in the experiment on OVCAR-5 ovarian it was greater than 100 µM. For the same compound, the TGI is greater than 100 µM in the experiment on MCF7 breast and 16.6 µM in the experiment with UACC-257 melanoma.

For the compound `COc1ccc2c(c1)C(=O)c1c-2c(N2CCN(C(=O)CCNCCNCCN)CC2)nc2ccccc12`, the GI50 in the experiment with T-47D breast was 3.43 µM; in the experiment with CCRF-CEM leukemia it was 2.85 µM; in the experiment with SF-295 CNS, 20.8 µM; in the experiment with UO-31 renal, 10.5 µM; with MCF7 breast it was 5.11 µM; in the experiment with K-562 leukemia it was 3.33 µM. Moreover, the GI50 in the experiment with UACC-257 melanoma is 3.24 µM. The TGI amounted to 15.6 µM in the experiment with T-47D breast; 7.93 µM in the experiment on CCRF-CEM leukemia; 44.7 µM in the experiment with SF-295 CNS; 30.4 µM in the experiment on UO-31 renal; 21.6 µM in the experiment on MCF7 breast; 9.63 µM in the experiment on K-562 leukemia. For the same compound, in the experiment on UACC-257 melanoma, the TGI amounted to 9.33 µM.

In the case of `O=S(=O)(O)n1ccnc1` (tested in a mixture with another compound), the TGI in the experiment on ACHN renal, in the experiment with T-47D breast, with EKVX NSCLC, in the experiment with SF-295 CNS, with UO-31 renal and in the experiment on OVCAR-5 ovarian was greater than 100 µM each time. For the same compound, the TGI with MCF7 breast, in the experiment with K-562 leukemia and with UACC-257 melanoma was greater than 100 µM each time.

Take `CCCCC(OC(=O)c1ccc(N)cc1)C(=O)Nc1nc(CC(=O)OCC)cs1` (centres undefined): the GI50 in the experiment with ACHN renal was 38.8 µM; in the experiment with T-47D breast it was 38.7 µM; with EKVX NSCLC, 38 µM; with SF-295 CNS, 32.3 µM; in the experiment with UO-31 renal, 40.9 µM; with OVCAR-5 ovarian, greater than 100 µM. Also, the GI50 with MCF7 breast was 34.8 µM; in the experiment on K-562 leukemia, 32.8 µM; in the experiment on UACC-257 melanoma, 42.8 µM. Also, the TGI with ACHN renal, in the experiment with T-47D breast, in the experiment on EKVX NSCLC, with SF-295 CNS, in the experiment on UO-31 renal and with OVCAR-5 ovarian was greater than 100 µM in each case. Also, the TGI in the experiment with MCF7 breast, in the experiment with K-562 leukemia and with UACC-257 melanoma was greater than 100 µM throughout.

For the compound `CCn1c(SCC(=O)Nc2cc(C(F)(F)F)ccc2Cl)nc2ccccc2c1=O`, the GI50 in the experiment on ACHN renal is 22.6 µM; in the experiment with T-47D breast, 25.2 µM; in the experiment with SF-295 CNS it was 71.9 µM; with UO-31 renal, 28.4 µM; in the experiment on OVCAR-5 ovarian, 61.9 µM; in the experiment with MCF7 breast it was 94.4 µM. Moreover, the GI50 with K-562 leukemia was greater than 100 µM. For the same compound, the TGI in the experiment on ACHN renal, in the experiment on T-47D breast, in the experiment with SF-295 CNS, in the experiment with UO-31 renal, with OVCAR-5 ovarian and in the experiment on MCF7 breast was greater than 100 µM each time. In the experiment with K-562 leukemia, this compound gave a TGI greater than 100 µM.

Regarding `CCOC(=O)c1c(-c2ccc(OC)c(O)c2)c(C#N)c(=S)n(C2OC(COC(C)=O)C(OC(C)=O)C(OC(C)=O)C2OC(C)=O)c1-c1ccccc1` (centres undefined), the GI50 with ACHN renal was 36.6 µM and > 100 µM; in the experiment with CCRF-CEM leukemia, 47.2 µM and > 100 µM; in the experiment on EKVX NSCLC, 45.4 µM and > 100 µM; with UO-31 renal it was 37 µM and > 100 µM; in the experiment on MCF7 breast, 28.2 µM and > 100 µM; with K-562 leukemia, 43.1 µM and > 100 µM. In the experiment on UACC-257 melanoma, the GI50 is 23.4 µM and > 100 µM. In addition, the TGI with ACHN renal, with CCRF-CEM leukemia, in the experiment on EKVX NSCLC, in the experiment with SF-295 CNS, with UO-31 renal and in the experiment on OVCAR-5 ovarian was greater than 100 µM throughout. In addition, the TGI was greater than 100 µM with MCF7 breast; greater than 100 µM in the experiment with K-562 leukemia; 60.8 µM and > 100 µM in the experiment with UACC-257 melanoma.

For the compound `CCN(CCO)CCCC(C)Nc1ccnc2cc(Cl)ccc12` (centres undefined), the GI50 in the experiment with ACHN renal, in the experiment with T-47D breast, with CCRF-CEM leukemia, with EKVX NSCLC, with SF-295 CNS and in the experiment on UO-31 renal was greater than 100 µM each time. Moreover, the GI50 in the experiment with MCF7 breast and with UACC-257 melanoma was greater than 100 µM throughout. For the same compound, the TGI with ACHN renal, in the experiment on T-47D breast, with CCRF-CEM leukemia, in the experiment on EKVX NSCLC, in the experiment on SF-295 CNS and in the experiment with UO-31 renal was greater than 100 µM throughout. The TGI in the experiment on MCF7 breast and with UACC-257 melanoma was greater than 100 µM in each case.

On to `CC(C)CCCCCCCCCCCCC(=O)NCC(=O)NC1C(C)OC(Nc2ncnc3nc[nH]c23)C(O)C1O` (centres undefined), for which the GI50 was 0.00153 µM with ACHN renal; 0.0251 µM in the experiment on EKVX NSCLC; 0.0176 µM in the experiment on SF-295 CNS; 0.00201 µM with UO-31 renal; 0.00814 µM in the experiment with OVCAR-5 ovarian; 0.0414 µM in the experiment with K-562 leukemia. Besides, the TGI in the experiment on ACHN renal is 0.00666 µM; in the experiment on CCRF-CEM leukemia it was 0.223 µM; in the experiment on SF-295 CNS, less than 0.0295 µM; in the experiment on MCF7 breast, 0.264 µM; in the experiment with UACC-257 melanoma it was 0.472 µM.

For `O=c1cc(-c2ccccc2)oc2c1ccc1ccccc12`, the GI50 with ACHN renal was 17.6 µM; in the experiment on T-47D breast, 23.9 µM; with CCRF-CEM leukemia, 22.8 µM; in the experiment on UO-31 renal, 8.55 µM; with OVCAR-5 ovarian it was 50.7 µM; in the experiment on MCF7 breast it was 13.9 µM. Moreover, the values for the GI50 in the experiment with K-562 leukemia and in the experiment on UACC-257 melanoma were 49.5 µM and 54.8 µM, respectively. In addition, the TGI is 90 µM in the experiment with ACHN renal; greater than 100 µM in the experiment with T-47D breast; 73.8 µM with CCRF-CEM leukemia; greater than 100 µM with UO-31 renal; greater than 100 µM in the experiment with OVCAR-5 ovarian; greater than 100 µM with MCF7 breast. For the same compound, the TGI in the experiment with K-562 leukemia and in the experiment with UACC-257 melanoma was greater than 100 µM each time.
